{
  "source": "patent US20190276439A1",
  "about": "“METHOD OF TREATING SOLID TUMORS” (priority 2016, published 2019)",
  "key": {"NET": {"system": "NET", "conditions": "cited from earlier work; for ORR: phase 3 trial"}, "TrkB": {"molecular_target": "TrkB (Homo sapiens, UniProt Q16620)", "sequence (Q16620 32-822)": "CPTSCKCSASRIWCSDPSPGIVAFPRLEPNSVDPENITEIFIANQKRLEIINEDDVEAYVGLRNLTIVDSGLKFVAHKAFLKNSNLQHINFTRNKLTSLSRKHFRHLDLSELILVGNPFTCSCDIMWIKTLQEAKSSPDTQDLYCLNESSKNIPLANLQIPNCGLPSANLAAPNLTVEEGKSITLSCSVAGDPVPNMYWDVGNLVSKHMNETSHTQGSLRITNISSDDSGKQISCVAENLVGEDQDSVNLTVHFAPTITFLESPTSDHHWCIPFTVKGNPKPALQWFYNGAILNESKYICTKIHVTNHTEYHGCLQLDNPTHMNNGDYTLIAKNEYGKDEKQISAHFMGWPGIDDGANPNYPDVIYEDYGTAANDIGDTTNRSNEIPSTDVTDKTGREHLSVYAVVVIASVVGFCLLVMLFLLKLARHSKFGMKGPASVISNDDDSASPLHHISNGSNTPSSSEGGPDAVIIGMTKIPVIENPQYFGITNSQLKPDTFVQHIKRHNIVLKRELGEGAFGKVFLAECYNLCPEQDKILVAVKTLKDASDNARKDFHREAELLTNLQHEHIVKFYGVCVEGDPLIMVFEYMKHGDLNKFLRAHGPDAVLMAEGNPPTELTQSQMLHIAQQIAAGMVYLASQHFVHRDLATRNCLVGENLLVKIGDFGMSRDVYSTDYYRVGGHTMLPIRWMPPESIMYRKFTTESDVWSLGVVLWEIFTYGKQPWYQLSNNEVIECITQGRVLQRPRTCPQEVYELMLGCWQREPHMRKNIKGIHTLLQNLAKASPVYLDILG", "assay": "Compound A kinase selectivity profile", "assay_type": "biochemical"}, "VEGFR 2": {"molecular_target": "VEGFR 2 (Homo sapiens, UniProt P35968)", "sequence (P35968 20-1356)": "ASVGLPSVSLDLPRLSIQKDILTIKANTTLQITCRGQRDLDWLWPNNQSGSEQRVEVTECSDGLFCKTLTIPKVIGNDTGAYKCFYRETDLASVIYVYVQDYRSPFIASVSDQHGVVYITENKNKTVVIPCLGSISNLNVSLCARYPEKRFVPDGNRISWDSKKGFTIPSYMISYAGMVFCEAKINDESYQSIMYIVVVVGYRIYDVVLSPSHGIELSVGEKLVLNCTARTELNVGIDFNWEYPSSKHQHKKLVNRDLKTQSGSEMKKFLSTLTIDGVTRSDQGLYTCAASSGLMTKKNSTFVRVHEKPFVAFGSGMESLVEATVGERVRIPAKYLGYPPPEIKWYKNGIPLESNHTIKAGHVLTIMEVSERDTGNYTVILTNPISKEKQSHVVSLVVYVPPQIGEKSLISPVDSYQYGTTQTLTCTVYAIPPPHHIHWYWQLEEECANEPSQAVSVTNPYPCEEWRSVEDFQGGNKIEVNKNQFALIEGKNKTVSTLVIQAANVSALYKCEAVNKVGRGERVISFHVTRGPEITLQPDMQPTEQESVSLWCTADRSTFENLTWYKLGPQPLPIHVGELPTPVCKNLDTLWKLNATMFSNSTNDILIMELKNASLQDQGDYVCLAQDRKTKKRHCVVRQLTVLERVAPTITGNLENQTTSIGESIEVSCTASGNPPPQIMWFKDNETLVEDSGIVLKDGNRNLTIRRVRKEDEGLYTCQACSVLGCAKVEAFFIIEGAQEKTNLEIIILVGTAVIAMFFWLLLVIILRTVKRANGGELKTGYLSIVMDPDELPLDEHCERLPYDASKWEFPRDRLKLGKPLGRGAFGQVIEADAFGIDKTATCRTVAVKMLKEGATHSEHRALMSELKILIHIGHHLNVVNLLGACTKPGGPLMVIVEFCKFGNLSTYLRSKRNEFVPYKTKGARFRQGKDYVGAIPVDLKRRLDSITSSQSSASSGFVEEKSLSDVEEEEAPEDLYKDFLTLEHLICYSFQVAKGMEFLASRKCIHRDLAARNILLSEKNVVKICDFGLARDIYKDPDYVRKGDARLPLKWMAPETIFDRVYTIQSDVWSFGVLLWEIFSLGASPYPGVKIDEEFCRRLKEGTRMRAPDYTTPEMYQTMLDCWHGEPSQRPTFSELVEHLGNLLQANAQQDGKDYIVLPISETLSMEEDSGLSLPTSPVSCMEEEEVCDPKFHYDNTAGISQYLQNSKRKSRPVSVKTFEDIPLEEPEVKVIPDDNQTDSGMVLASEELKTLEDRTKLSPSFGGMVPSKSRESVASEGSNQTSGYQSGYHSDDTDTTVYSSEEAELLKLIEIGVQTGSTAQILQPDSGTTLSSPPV", "assay": "Compound A kinase selectivity profile", "assay_type": "biochemical"}, "VEGFR 1": {"molecular_target": "VEGFR 1 (Homo sapiens, UniProt P17948)", "assay": "Compound A kinase selectivity profile", "assay_type": "biochemical"}, "VEGFR 3": {"molecular_target": "VEGFR 3 (Homo sapiens, UniProt P35916)", "assay": "Compound A kinase selectivity profile", "assay_type": "biochemical"}, "278 other kinases": {"molecular_target": "278 other kinases", "assay": "Compound A kinase selectivity profile", "assay_type": "biochemical"}, "Fms kinase": {"molecular_target": "T1, Fms kinase (Homo sapiens, UniProt P07333)", "T1 construct": "purchased Eurofins Pharma Discovery Services UK Ltd", "T1 sequence (P07333 20-972)": "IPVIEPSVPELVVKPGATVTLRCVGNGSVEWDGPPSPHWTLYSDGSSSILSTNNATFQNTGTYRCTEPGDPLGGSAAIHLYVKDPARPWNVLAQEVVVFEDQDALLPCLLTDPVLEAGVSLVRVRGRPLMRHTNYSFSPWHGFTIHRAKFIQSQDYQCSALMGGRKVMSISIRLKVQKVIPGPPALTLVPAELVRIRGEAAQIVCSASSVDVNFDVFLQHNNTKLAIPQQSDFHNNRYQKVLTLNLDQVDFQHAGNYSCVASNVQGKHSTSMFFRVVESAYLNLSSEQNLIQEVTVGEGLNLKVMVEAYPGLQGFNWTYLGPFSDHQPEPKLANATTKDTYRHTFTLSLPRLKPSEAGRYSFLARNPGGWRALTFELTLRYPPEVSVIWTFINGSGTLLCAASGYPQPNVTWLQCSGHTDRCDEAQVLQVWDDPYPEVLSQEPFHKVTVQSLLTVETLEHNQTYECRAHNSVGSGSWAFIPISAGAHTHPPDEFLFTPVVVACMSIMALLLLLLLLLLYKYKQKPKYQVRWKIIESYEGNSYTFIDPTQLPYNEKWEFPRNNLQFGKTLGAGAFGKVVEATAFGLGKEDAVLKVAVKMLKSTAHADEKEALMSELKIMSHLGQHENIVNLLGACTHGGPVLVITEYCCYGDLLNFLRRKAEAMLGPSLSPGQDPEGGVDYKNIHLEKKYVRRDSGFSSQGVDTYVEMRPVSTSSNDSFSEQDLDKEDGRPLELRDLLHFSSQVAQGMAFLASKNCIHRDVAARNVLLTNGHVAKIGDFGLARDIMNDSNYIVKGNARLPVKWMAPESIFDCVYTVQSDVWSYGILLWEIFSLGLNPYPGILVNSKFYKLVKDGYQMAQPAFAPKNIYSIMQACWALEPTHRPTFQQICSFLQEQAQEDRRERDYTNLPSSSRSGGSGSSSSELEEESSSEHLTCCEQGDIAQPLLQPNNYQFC", "assay": "CSF1R inhibition, [γ-33P-ATP] incorporation assay (Eurofins)", "assay_type": "biochemical", "description": "Inhibition of compound A on Fins was determined using […] incorporation assay carried by Eurofins Pharma Discovery Services UK Ltd. Fms kinase was incubated with 8 mM MOPS (3-(N-Morpholino)propanesulfonic acid sodium) pH 7.0, 0.2 mM EDTA ((Ethylenedinitrilo)tetraacetic acid disodium salt), 250 μM […] (a peptide), 10 mM MgAcetate and [γ-33P-ATP] (specific activity approx. 500 cpm/pmol, concentration as required). The reaction was initiated by the addition of the MgATP mix. After incubation for 40 minutes at room temperature, the reaction was stopped by the addition of 3% phosphoric acid solution. 10 μL of the reaction was then spotted onto a P30 filtermat and washed three times for 5 minutes in 75 mM phosphoric acid and once in methanol prior to drying and scintillation counting."}, "FGFR1": {"molecular_target": "FGFR1 (Homo sapiens, UniProt P11362)", "sequence (P11362 22-822)": "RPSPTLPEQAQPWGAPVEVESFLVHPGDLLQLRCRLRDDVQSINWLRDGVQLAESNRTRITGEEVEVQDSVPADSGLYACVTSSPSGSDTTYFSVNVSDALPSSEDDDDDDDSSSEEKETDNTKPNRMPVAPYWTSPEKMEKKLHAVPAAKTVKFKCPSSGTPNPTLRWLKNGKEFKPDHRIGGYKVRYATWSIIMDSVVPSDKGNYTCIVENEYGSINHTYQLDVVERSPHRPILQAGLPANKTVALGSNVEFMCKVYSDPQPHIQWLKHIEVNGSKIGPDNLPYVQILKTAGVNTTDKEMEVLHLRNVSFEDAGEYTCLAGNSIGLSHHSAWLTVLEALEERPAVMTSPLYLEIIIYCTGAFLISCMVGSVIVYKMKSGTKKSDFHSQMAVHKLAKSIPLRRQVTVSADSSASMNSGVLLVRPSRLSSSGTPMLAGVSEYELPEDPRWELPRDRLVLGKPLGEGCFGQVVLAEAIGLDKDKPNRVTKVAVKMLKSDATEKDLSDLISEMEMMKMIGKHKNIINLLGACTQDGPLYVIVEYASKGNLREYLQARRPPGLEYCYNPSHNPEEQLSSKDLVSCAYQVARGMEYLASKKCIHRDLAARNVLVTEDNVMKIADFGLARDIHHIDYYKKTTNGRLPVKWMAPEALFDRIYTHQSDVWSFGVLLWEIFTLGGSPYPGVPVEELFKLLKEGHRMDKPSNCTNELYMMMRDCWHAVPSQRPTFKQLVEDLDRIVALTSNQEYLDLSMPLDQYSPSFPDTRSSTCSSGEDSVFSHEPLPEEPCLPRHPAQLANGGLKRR", "assay": "Compound A kinase selectivity profile", "assay_type": "biochemical"}, "FLT3": {"molecular_target": "T2, FLT3 (Homo sapiens, UniProt P36888)", "T2 sequence (P36888 27-993)": "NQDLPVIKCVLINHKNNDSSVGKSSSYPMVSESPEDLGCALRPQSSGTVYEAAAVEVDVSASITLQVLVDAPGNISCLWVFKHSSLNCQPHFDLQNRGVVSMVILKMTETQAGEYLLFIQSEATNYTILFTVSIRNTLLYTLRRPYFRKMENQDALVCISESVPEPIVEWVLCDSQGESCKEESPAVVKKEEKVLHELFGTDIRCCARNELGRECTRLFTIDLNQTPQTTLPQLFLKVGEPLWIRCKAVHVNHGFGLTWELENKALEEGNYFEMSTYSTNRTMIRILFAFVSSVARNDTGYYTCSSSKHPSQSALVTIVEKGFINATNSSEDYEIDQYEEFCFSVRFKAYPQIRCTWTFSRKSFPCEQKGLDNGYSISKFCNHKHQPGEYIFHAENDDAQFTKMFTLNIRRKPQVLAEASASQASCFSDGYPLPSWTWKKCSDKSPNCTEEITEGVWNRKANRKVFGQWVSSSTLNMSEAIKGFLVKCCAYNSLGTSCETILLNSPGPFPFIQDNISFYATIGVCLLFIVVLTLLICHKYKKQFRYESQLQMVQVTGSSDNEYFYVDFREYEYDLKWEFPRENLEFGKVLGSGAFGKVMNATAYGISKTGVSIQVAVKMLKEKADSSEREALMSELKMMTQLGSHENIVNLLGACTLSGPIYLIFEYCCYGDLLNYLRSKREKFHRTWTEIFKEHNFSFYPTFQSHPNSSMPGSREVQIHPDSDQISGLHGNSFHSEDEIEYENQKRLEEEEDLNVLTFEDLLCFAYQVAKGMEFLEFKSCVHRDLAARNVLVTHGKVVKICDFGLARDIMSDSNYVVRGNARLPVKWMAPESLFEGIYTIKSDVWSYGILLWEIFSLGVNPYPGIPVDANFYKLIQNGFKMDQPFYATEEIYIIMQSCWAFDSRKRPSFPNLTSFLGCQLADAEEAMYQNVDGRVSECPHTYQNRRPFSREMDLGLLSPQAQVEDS", "assay": "Compound A kinase selectivity profile", "assay_type": "biochemical"}, "CSF1R": {"molecular_target": "CSF1R (Homo sapiens, UniProt P07333)", "sequence (P07333 20-972)": "as the sequence (P07333 20-972) above", "assay": "Compound A kinase selectivity profile", "assay_type": "biochemical"}, "advanced solid tumors": {"system": "advanced solid tumors", "assay": "Phase 1 clinical study: tumor response (RECIST Version 1.0)", "assay_type": "in vivo, human", "conditions": "total 77 patients", "description": "Patients with neuroendocrine tumors (NETs) were enrolled with priority as preliminary efficacy was shown in these tumor types in the dose-escalation stage.\nTumor response (an exploratory endpoint) was assessed according to Response Evaluation Criteria in Solid Tumors (RECIST) Version 1.0 and measured at baseline, and at the end of every treatment cycle in the first 4 cycles and every other cycle thereafter. Patients with an initial assessment of complete response (CR) or partial response (PR) had to have the result confirmed by a repeat tumor assessment at least 4 weeks later. Calculations of the following parameters were made: objective response rate (ORR) (CR+PR); stable disease (SD) defined as ≥1 assessment of SD at least 6 weeks after study entry; disease control rate (DCR) (CR+PR+SD). Time to response (TTR), duration of response (DoR), and progression-free survival (PFS) were assessed in the subgroup of patients with NET."}, "[1]": {"assay": "Phase 1 clinical study: toxicity, DLT and MTD assessments", "assay_type": "in vivo, human", "conditions": "doses of 50-350 mg QD and 125-150 mg BID; up to 350 mg QD (formulation 2)", "description": "During the dose-escalation phase, patients were given a single dose of compound A and monitored for adverse events (AEs) for 7 days. If no clinically significant toxicities were observed, patients could enter the 28-day dose-limiting toxicity (DLT) observation phase where they received compound A continuously for 28 days. DLTs were assessed at the end of the 28-day period. If no patients experienced a DLT during the 28-day period, the dose was escalated (FIG. 1). After the completion of the DLT observation phase, patients could continue compound A treatment at their current dose (if they were judged by the investigator to be benefiting from the treatment) until any of the withdrawal criteria (investigator's decision that withdrawal was in the patient's best interest, intolerable toxicity, disease progression) were met.\nThe study used a modified Fibonacci 3+3 dose-escalation design with at least three evaluable patients treated with each dose. In total, 12 dose cohorts were assessed (FIG. 1). […] If […] patients experienced a DLT, the MTD was considered exceeded and the previous lower dose would be re-assessed to determine the MTD. […]\nSafety and tolerability were assessed in all patients who received at least one dose of study medication throughout the study. AEs were recorded throughout the study. […]"}},
  "note": "Like-named read-outs stand apart in the source and are kept apart here.",
  "data": [
    {"smiles": "CO[C@H]1C[C@@H]2CC[C@@H](C)[C@@](O)(O2)C(=O)C(=O)N2CCCC[C@H]2C(=O)O[C@H]([C@H](C)C[C@@H]2CC[C@@H](OCCO)[C@H](OC)C2)CC(=O)[C@H](C)/C=C(\\C)[C@@H](O)[C@@H](OC)C(=O)[C@H](C)C[C@H](C)/C=C/C=C/C=C/1C", "note": "[everolimus]", "values": [
      {"measurement": "ORR", "setting": "NET; GI and lung NET", "value": 2, "unit": "%"},
      {"measurement": "ORR", "setting": "NET; pancreatic NET", "value": 5, "unit": "%"},
      {"measurement": "median PFS", "setting": "NET; phase 3 trials", "value": "approximately 11 months"}
    ]},
    {"smiles": "Cc1cc2cc(Oc3ccnc(Nc4cccc(CS(=O)(=O)NCCN(C)C)c4)n3)ccc2[nH]1", "note": "[Compound A, N-(2-(dimethylamino)ethyl)-1-(3-((4-((2-methyl-1H-indol-5-yl)oxy)pyrimidin-2-yl)amino)phenyl)-methanesulfonamide]", "values": [
      {"measurement": "IC50", "setting": "TrkB", "value": 41, "unit": "nM"},
      {"measurement": "IC50", "setting": "VEGFR 2", "value": 24, "unit": "nM"},
      {"measurement": "IC50", "setting": "VEGFR 1", "value": 2, "unit": "nM"},
      {"measurement": "IC50", "setting": "VEGFR 3", "value": 1, "unit": "nM"},
      {"measurement": "IC50", "setting": "278 other kinases", "value": "> 150", "unit": "nM"},
      {"measurement": "IH (%)", "setting": "Fms kinase; 0.0001 μM", "value": "−3", "unit": "%"},
      {"measurement": "IH (%)", "setting": "Fms kinase; 0.0003 μM", "value": 3, "unit": "%"},
      {"measurement": "IH (%)", "setting": "Fms kinase; 0.001 μM", "value": 15, "unit": "%"},
      {"measurement": "IH (%)", "setting": "Fms kinase; 0.003 μM", "value": 38, "unit": "%"},
      {"measurement": "IH (%)", "setting": "Fms kinase; 0.01 μM", "value": 72, "unit": "%"},
      {"measurement": "IH (%)", "setting": "Fms kinase; 0.03 μM", "value": 86, "unit": "%"},
      {"measurement": "IH (%)", "setting": "Fms kinase; 0.1 μM", "value": 94, "unit": "%"},
      {"measurement": "IH (%)", "setting": "Fms kinase; 0.3 μM", "value": 98, "unit": "%"},
      {"measurement": "IH (%)", "setting": "Fms kinase; 1 μM", "value": 98, "unit": "%"},
      {"measurement": "IC50", "setting": "FGFR1", "value": 15, "unit": "nM"},
      {"measurement": "IC50", "setting": "FLT3", "value": 67, "unit": "nM"},
      {"measurement": "IC50", "setting": "CSF1R", "value": 4, "unit": "nM"},
      {"measurement": "patients with confirmed PR", "setting": "advanced solid tumors", "value": "nine"},
      {"measurement": "MTD (maximum tolerated dose)", "setting": "[1]", "value": "not reached"}
    ]}
  ]
}
